Measurements: US9814696B2, “Use of coumarin derivatives for the preparation of drugs for treating skin diseases” (UNIVERSITE PIERRE ET MARIE CURIE (PARIS 6), priority 2011, dated 2017)

Key:
Format in all cases: biochemical
KLK7 = KLK7 (Homo sapiens, UniProt P49862); assay: KLK7 enzyme inhibition assay, fluorogenic substrate Suc-Leu-Leu-Val-Tyr-AMC; details: for inhibition at 10 µM / IC50 / inhibition at 100 µM / inhibition at 50 µM: 37° C., 15 min of incubation, pH 8; for selective activity against enzyme: KLK7: Table B, among KLK5, KLK7 and KLK14; for IC50: Table A, read-out: IC50 (μM) KLK7
Method: (§1) Kallikreins KLK5, KLK7 and KLK14 activities were determined by monitoring the hydrolysis of the appropriate fluorogenic substrate (λexc=355, λem=460 nm) for 15 min at 37° C. in the presence of the untreated kallikrein (control) or kallikrein that had been incubated with a test compound. Substrate and compounds were previously dissolved in DMSO, with the final solvent concentration kept constant at 2% (v/v) (KLK 5 and 14), and 4% (v/v) (KLK7). The composition of the activity buffers (pH 8.0) was 100 mM Tris-HCl, 150 mM NaCl, 0.01% (v/v) Tween 20 for the KLK5 assay, and 100 mM Tris-HCl, 1M NaCl, 0.01% (v/v) Tween 20 in the KLK 7 and 14 assays. The final concentrations were 0.6 nM (KLK5) and 100 μM (Boc-Val-Pro-Arg-AMC) (KLK5 assay), 8 nM (KLK7) and 40 μM (Suc-Leu-Leu-Val-Tyr-AMC, AMC: 7-amino-4-methyl-coumarin) (KLK7 assay), and 0.17 nM (KLK14) and 10 μM (Boc-Val-Pro-Arg-AMC) (KLK14 assay). Using the appropriate substrate, the coumarinic compounds (0.01-100 μM) were tested in duplicate for each inhibitor concentration to detect their inhibitory potential. The enzyme and the inhibitors were incubated for 15 min before the determination of the enzyme activity. Initial rates determined in control experiments (V0) were considered to be 100% of the peptidase activity; initial rates below 100% were considered to be inhibitions. The inhibitory activity of compounds was expressed as IC50 (inhibitor concentrations giving 50% inhibition). The values of IC50 were calculated by fitting the experimental data to the equation: % Inhibition=100×(1−Vi/V0)=100[I]0/(IC50+[I]0), or equation: % Inhibition=100[I]0^nH/(IC50^nH+[I]0^nH),nH is the Hill number.
(§2) The tests were realized at 37° C. after 15 min of incubation at pH 8.

KLK5 = target: T1, KLK5 (Homo sapiens, UniProt Q9Y337); assay: KLK5 enzyme inhibition assay, fluorogenic substrate Boc-Val-Pro-Arg-AMC; details: for IC50: Table A, read-out: IC50 (μM) KLK5
T1 sequence (Q9Y337 23-293): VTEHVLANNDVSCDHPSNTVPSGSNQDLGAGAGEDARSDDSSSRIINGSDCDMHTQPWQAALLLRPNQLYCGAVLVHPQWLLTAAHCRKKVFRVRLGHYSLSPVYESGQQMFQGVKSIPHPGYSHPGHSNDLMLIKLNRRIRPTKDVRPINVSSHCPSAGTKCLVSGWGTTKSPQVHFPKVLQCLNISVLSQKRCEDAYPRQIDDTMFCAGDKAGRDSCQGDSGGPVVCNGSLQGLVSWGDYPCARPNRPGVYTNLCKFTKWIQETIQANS
Method: as §1, §2

KLK14 = target: T2, KLK14 (Homo sapiens, UniProt Q9P0G3); assay: KLK14 enzyme inhibition assay, fluorogenic substrate Boc-Val-Pro-Arg-AMC; details: for inhibition at 50 µM / inhibition at 100 µM / IC50: 37° C., 15 min of incubation, pH 8; for selective activity against enzyme: KLK14: Table B, among KLK5, KLK7 and KLK14; for IC50: Table A, read-out: IC50 (μM) KLK14
T2 sequence (Q9P0G3 25-251): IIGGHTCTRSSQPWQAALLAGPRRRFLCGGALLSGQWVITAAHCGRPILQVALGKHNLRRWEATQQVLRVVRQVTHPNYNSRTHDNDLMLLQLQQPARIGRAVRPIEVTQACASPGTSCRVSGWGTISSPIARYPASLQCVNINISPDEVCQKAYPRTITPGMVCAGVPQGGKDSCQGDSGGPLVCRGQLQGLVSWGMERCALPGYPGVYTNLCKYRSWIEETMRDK
Method: as §1, §2

[1] = 37° C., 15 min of incubation, pH 8

Chain of KLK7 (P49862 30-253): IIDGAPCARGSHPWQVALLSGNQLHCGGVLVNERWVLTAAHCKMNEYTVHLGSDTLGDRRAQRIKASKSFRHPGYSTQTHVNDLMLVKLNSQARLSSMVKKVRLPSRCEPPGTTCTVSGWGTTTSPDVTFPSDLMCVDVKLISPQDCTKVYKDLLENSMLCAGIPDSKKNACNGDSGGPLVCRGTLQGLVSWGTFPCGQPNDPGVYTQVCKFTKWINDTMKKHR

selective activity against enzyme: KLK7 (KLK7) | IC50 (KLK5; [1]) [µM] | IC50 (KLK7) [µM] | inhibition at 100 µM (KLK14) [%] | Compound | other results
KLK7 | – | – | – | CC(=O)NCc1ccc2oc(=O)c(C(=O)Oc3cccc(Cl)c3)cc2c1 [IK53] | inhibition at 10 µM (KLK7): 54%
– | 80 ± 8 | 0.136 ± 0.012 | – | O=C(Oc1cc(Cl)cc(Cl)c1)c1cc2cc(CCl)ccc2oc1=O [LP75] | –
– | – | – | – | CC(=O)OCc1ccc2oc(=O)c(C(=O)Oc3cc(F)ccc3Br)cc2c1 [CFL17] | inhibition at 100 µM (KLK7): 33%; inhibition at 50 µM (KLK14): 50%; selective activity against enzyme: KLK14 (KLK14): KLK14
– | – | 1.9 ± 0.1 | 35 | O=C(Oc1ccccc1I)c1cc2cc(CCl)ccc2oc1=O [LP15] | –
– | 112 ± 6 | 1.44 ± 0.02 | 46 | O=C(Oc1ccccc1[N+](=O)[O-])c1cc2cc(CCl)ccc2oc1=O [LP60] | –
– | – | – | 71 | Cc1cc(OC(=O)c2cc3cc(CCl)ccc3oc2=O)ccc1Cl [MFS35] | inhibition at 100 µM (KLK7): 55%; selective activity against enzyme: KLK14 (KLK14): KLK14
– | – | – | 33 | O=C(Oc1cc(F)ccc1F)c1cc2ccccc2oc1=O [CFL7] | inhibition at 100 µM (KLK7): 33%
– | – | – | – | CC(=O)OCc1ccc2oc(=O)c(C(=O)Oc3ccccc3C#N)cc2c1 [SMB33, 2-cyanophenyl 6-acetoxymethyl-2-oxo-2H-1-benzopyran-3-carboxylate] | inhibition at 50 µM (KLK14): 27%; selective activity against enzyme: KLK14 (KLK14): KLK14
KLK7 | – | 0.25 ± 0.01 | 30 | O=C(Oc1cccc(F)c1)c1cc2cc(CCl)ccc2oc1=O [LP51] | inhibition at 50 µM (KLK5; [1]): 26%
KLK7 | – | – | – | CCC(=O)OCc1ccc2oc(=O)c(C(=O)Oc3cncc(Cl)c3)cc2c1 [LP42] | inhibition at 50 µM (KLK5; [1]): 22%; inhibition at 100 µM (KLK7): 52%
KLK7 | 1.3 ± 0.2 | 0.195 ± 0.024 | – | O=C(Oc1cc(Cl)ccc1Cl)c1cc2cc(CCl)ccc2oc1=O [LP74] | IC50 (KLK14): 54 ± 6 µM
– | – | – | – | O=C(Oc1ccc(I)cc1)c1cc2cc(CCl)ccc2oc1=O [LP16] | inhibition at 50 µM (KLK7): 47%
– | – | 33.2 ± 1.4 | – | O=C(Oc1ccccc1)c1cc2cc(CO)ccc2oc1=O [MH30] | inhibition at 50 µM (KLK5; [1]): 25%; inhibition at 50 µM (KLK14): 32%
– | – | – | – | CC(=O)OCc1ccc2oc(=O)c(C(=O)Oc3cccc(F)c3)cc2c1 [IK10] | inhibition at 50 µM (KLK5; [1]): 23%; selective activity against enzyme: KLK5 (KLK5; Table B, among KLK5, KLK7 and KLK14): KLK5
– | – | – | – | O=C(Oc1ccccc1)c1cc2cc(O)c(O)cc2oc1=O [MH22] | inhibition at 50 µM (KLK5; [1]): 32%; inhibition at 50 µM (KLK7): 100%; inhibition at 50 µM (KLK14): 85%
– | – | – | – | CC(=O)OCc1ccc2oc(=O)c(C(=O)Oc3ccccc3Cl)cc2c1 [SMB27] | inhibition at 50 µM (KLK7): 42%; inhibition at 50 µM (KLK14): 27%
– | 26.3 ± 1.4 | 2.7 ± 0.1 | – | COC(=O)c1ccccc1OC(=O)c1cc2cc(CCl)ccc2oc1=O [IK1] | IC50 (KLK14): 38 ± 5 µM
KLK7 | 59 ± 9 | 0.495 ± 0.037 | 50 | O=C(Oc1c(Cl)cccc1Cl)c1cc2cc(CCl)ccc2oc1=O [LP72] | –
– | ~40 | 64.3 ± 2.7 | 64 | COC(=O)c1ccccc1OC(=O)c1cc2cc(COC(C)=O)ccc2oc1=O [IK8] | –
– | – | – | – | O=C(O)c1ccccc1OC(=O)c1cc2cc(CCl)ccc2oc1=O [IK11] | inhibition at 50 µM (KLK5; [1]): 37.4%; inhibition at 100 µM (KLK7): 63%; IC50 (KLK14): 43 ± 4 µM
KLK7 | – | – | – | CC(=O)NCc1ccc2oc(=O)c(C(=O)Oc3cccc(Br)c3)cc2c1 [IK49] | inhibition at 10 µM (KLK7): 54%
KLK7 | – | 0.352 ± 0.055 | 45 | O=C(Oc1cc(F)ccc1Br)c1cc2cc(CCl)ccc2oc1=O [CFL15] | inhibition at 100 µM (KLK5; 100 μM, 37° C., 15 min of incubation, pH 8): 47%
– | 182 ± 14 | – | – | NCc1ccc2oc(=O)c(C(=O)Oc3ccccc3)cc2c1 [LP71] | –
